Counter-ions that a name gives are not always drawn. Like-named read-outs stand apart in the source and are kept apart here.
Test system: parental wild-type Ba/F3 cells
Experiment: Ba/F3 (WT) cell proliferation assay (Alamar Blue)
Type: cell-based
Conditions: Mus musculus
[1] = BaF3, 72 h, read-out: BaF3 WT prolif (μM)
[2] = BaF3, read-out: BaF3 WT prolif, % inhibition
[3] = BaF3, 72 hours, Alamar Blue, read-out: BaF3 WT prolif

| SMILES | IC50 [3] | inhibition at 10 µM [2] | other results |
| --- | --- | --- | --- |
| Cc1nnc(-c2ccn3c(-c4cccc(NC(=O)NCC(F)(F)F)c4)cnc3c2)nc1C [Example 118, 1-{3-[7-(5,6-Dimethyl-[1,2,4]triazin-3-yl)-imidazo[1,2-a]pyridin-3-yl]-phenyl}-3-(2,2,2-trifluoro-ethyl)-urea hydrochloride] | – | – | IC50 [1]: 0.88 µM |
| NC(=O)Nc1cccc(-c2cnc3cc(Cl)ccn23)c1 [Example 119, [3-(7-Chloro-imidazo[1,2-a]pyridin-3-yl)-phenyl]-urea] | – | – | inhibition at 3 µM [2]: 23% |
| CN(C)c1ccnc(-c2ccn3c(-c4cccc(NC(=O)NCC(F)(F)F)c4)cnc3c2)n1 [Example 120, 1-{3-[7-(4-Dimethylamino-pyrimidin-2-yl)-imidazo[1,2-a]pyridin-3-yl]-phenyl}-3-(2,2,2-trifluoro-ethyl)-urea hydrochloride] | – | – | IC50 [1]: 1.1 µM |
| O=C(NCC(F)(F)F)Nc1cccc(-c2cnc3cc(-c4ccc(CCO)cn4)ccn23)c1 [Example 122, 1-(3-{7-[5-(2-Hydroxy-ethyl)-pyridin-2-yl]-imidazo[1,2-a]pyridin-3-yl}-phenyl)-3-(2,2,2-trifluoro-ethyl)-urea] | 2.4 µM | – | – |
| O=C(NCC(F)(F)F)Nc1cncc(-c2cnc3cc(-c4cnn(C5CNC5)c4)ccn23)c1 [Example 123, 1-{5-[7-(1-Azetidin-3-yl-1H-pyrazol-4-yl)-imidazo[1,2-a]pyridin-3-yl]-pyridin-3-yl}-3-(2,2,2-trifluoro-ethyl)-urea formate] | – | – | IC50 [1]: 8.9 µM |
| Nc1cccnc1-c1ccn2c(-c3cccc(NC(=O)NCC(F)(F)F)c3)cnc2c1 [Example 125, 1-{3-[7-(3-Amino-pyridin-2-yl)-imidazo[1,2-a]pyridin-3-yl]-phenyl}-3-(2,2,2-trifluoro-ethyl)-urea hydrochloride] | – | – | IC50 [1]: 2.1 µM |
| O=C(NCC(F)(F)F)Nc1cccc(-c2cnc3cc(-c4ccc(OC5CCNCC5)nn4)ccn23)c1 [Example 130, 1-(3-{7-[6-(Piperidin-4-yloxy)-pyridazin-3-yl]-imidazo[1,2-a]pyridin-3-yl}-phenyl)-3-(2,2,2-trifluoro-ethyl)-urea] | – | 26% | – |
| O=C(NCC(F)(F)F)Nc1cccc(-c2cnc3cc(-c4ccc(OC5CCCNC5)nn4)ccn23)c1 (centres unmarked) [Example 131, 1-(3-{7-[6-(Piperidin-3-yloxy)-pyridazin-3-yl]-imidazo[1,2-a]pyridin-3-yl}-phenyl)-3-(2,2,2-trifluoro-ethyl)-urea] | – | 2.9% | – |
| Cc1cc(-c2ccn3c(-c4cccc(NC(=O)NCC(F)(F)F)c4)cnc3c2)nnc1Cl [Example 135, 1-{3-[7-(6-Chloro-5-methyl-pyridazin-3-yl)-imidazo[1,2-a]pyridin-3-yl]-phenyl}-3-(2,2,2-trifluoro-ethyl)-urea] | 0.51 µM | – | – |
| Cc1cc(Cl)nnc1-c1ccn2c(-c3cccc(NC(=O)NCC(F)(F)F)c3)cnc2c1 [Example 136, 1-{3-[7-(6-Chloro-4-methyl-pyridazin-3-yl)-imidazol[1,2-a]pyridin-3-yl]-phenyl}-3-(2,2,2-trifluoro-ethyl)-urea] | 0.44 µM | – | – |
| COc1cnc(Cl)nc1-c1ccn2c(-c3cccc(NC(=O)NCC(F)(F)F)c3)cnc2c1 [Example 139, 1-{3-[7-(2-Chloro-5-methoxy-pyrimidin-4-yl)-imidazo[1,2-a]pyridin-3-yl]-phenyl}-3-(2,2,2-trifluoro-ethyl)-urea] | 3.6 µM | – | – |
| COc1cncnc1-c1ccn2c(-c3cccc(NC(=O)NCC(F)(F)F)c3)cnc2c1 [Example 140, 1-{3-[7-(5-Methoxy-pyrimidin-4-yl)-imidazo[1,2-a]pyridin-3-yl]-phenyl}-3-(2,2 ,2-trifluoro-ethyl)-urea] | – | 7.1% | – |
| Cc1cnnc(-c2ccn3c(-c4cccc(NC(=O)NCC(F)(F)F)c4)cnc3c2)n1 [Example 142, 1-{3-[7-(5-Methyl-[1,2,4]triazin-3-yl)-imidazo[1,2-a]pyridin-3-yl]-phenyl}-3-(2,2,2-trifluoro-ethyl)-urea] | 1.1 µM | – | – |
| CC(=O)N1CCN(c2ccc(-c3ccn4c(-c5cccc(NC(=O)NCC(F)(F)F)c5)cnc4c3)cn2)CC1 [Example 145, 1-(3-{7-[6-(4-Acetyl-piperazin-1-yl)-pyridin-3-yl]-imidazo[1,2-a]pyridin-3-yl}-phenyl)-3-(2,2,2-trifluoro-ethyl)-urea] | 0.82 µM | – | – |
| COc1ncccc1-c1ccn2c(-c3cccc(NC(=O)NCC(F)(F)F)c3)cnc2c1 [Example 150, 1-{3-[7-(2-Methoxy-pyridin-3-yl)-imidazo[1,2-a]pyridin-3-yl]-phenyl}-3-(2,2,2-trifluoro-ethyl)-urea] | 1.7 µM | – | – |
| Cn1cncc1/C=C/c1ccn2c(-c3cccc(NC(=O)NCC(F)(F)F)c3)cnc2c1 [Example 155, 1-(3-{7-[(E)-2-(3-Methyl-3H-imidazol-4-yl)-vinyl]-imidazo[1,2-a]pyridin-3-yl}-phenyl)-3-(2,2,2-trifluoro-ethyl)-urea] | – | – | inhibition at 3 µM [2]: 28% |
| Cc1nnc(-c2ccn3c(-c4cccc(NC(=O)NC5CC5)c4)cnc3c2)o1 [Example 157, 1-Cyclopropyl-3-{3-[7-(5-methyl-[1,3,4]oxadiazol-2-yl)-imidazo[1,2-a]pyridin-3-yl]-phenyl}-urea] | – | 38% | – |
| O=C(Nc1cccc(-c2cnc3cc(-c4nncs4)ccn23)c1)NC1CC1 [Example 158, 1-Cyclopropyl-3-[3-(7-[1,3,4]thiadiazol-2-yl-imidazo[1,2-a]pyridin-3-yl)-phenyl]-urea] | 2.9 µM | – | – |
| Nc1cnc(-c2ccn3c(-c4cccc(NC(=O)NCC(F)(F)F)c4)cnc3c2)nc1Cl [Example 170] | – | – | inhibition at 3 µM [2]: 14% |
| Cc1cc(N)nc(-c2ccn3c(-c4cccc(NC(=O)NCC(F)(F)F)c4)cnc3c2)n1 [Example 171] | – | – | inhibition at 1 µM [2]: 16% |
| Cc1nc(-c2ccn3c(-c4cccc(NC(=O)NCC(F)(F)F)c4)cnc3c2)ccc1F [Example 172] | 3.4 µM | – | – |
| O=C(NCC(F)(F)F)Nc1cccc(-c2cnc3cc(-c4ncc(F)c(NC5CC5)n4)ccn23)c1 [Example 180] | – | 42% | – |
| O=C(NCC(F)(F)F)Nc1cccc(-c2cnc3cc(-c4cc(=O)[nH]cn4)ccn23)c1 [Example 184] | – | 22% | – |
| Cn1ccnc1/C=C/c1ccn2c(-c3cccc(NC(=O)NCC(F)(F)F)c3)cnc2c1 [Example 189] | 3.4 µM | – | – |
| O=C(NCC(F)(F)F)Nc1cccc(-c2cnc3cc(-c4nccc(=O)[nH]4)ccn23)c1 [Example 190] | – | – | inhibition at 3 µM [2]: 35% |
| Cc1nc(-c2ccn3c(-c4cccc(NC(=O)NCC(F)(F)F)c4)cnc3c2)cc(N2CCN(CCO)CC2)n1 [Example 194] | – | – | inhibition at 3 µM [2]: 26% |
| NC1CN(c2ccnc(-c3ccn4c(-c5cccc(NC(=O)NCC(F)(F)F)c5)cnc4c3)n2)C1 [Example 197] | 2.6 µM | – | – |

| SMILES | IC50 [3] | inhibition at 10 µM [2] | other results |
| --- | --- | --- | --- |
| O=C(NCC(F)(F)F)Nc1cccc(-c2cnc3cc(-c4ccnc(C(F)(F)F)n4)ccn23)c1 [Example 199] | – | 62% | – |
| O=C(NCC(F)(F)F)Nc1cccc(-c2cnc3cc(-c4nccc(N5CC(O)C5)n4)ccn23)c1 [Example 203] | – | 30% | – |
| COc1ccc(-c2ccn3c(-c4cccc(NC(=O)NCC(F)(F)F)c4)cnc3c2)nc1 [Example 204] | 0.82 µM | – | – |
| CSc1nc(N)cc(-c2ccn3c(-c4cccc(NC(=O)NCC(F)(F)F)c4)cnc3c2)n1 [Example 205] | 9.8 µM | – | – |
| O=C(NCC(F)(F)F)Nc1cccc(-c2cnc3cc(/C=C/CO)ccn23)c1 [Example 206] | 2.9 µM | – | – |
| NC(=O)c1ccc(-c2ccn3c(-c4cccc(NC(=O)NCC(F)(F)F)c4)cnc3c2)nc1 [Example 207] | – | 14% | – |
| Cc1nc(N)cc(-c2ccn3c(-c4cccc(NC(=O)NCC(F)(F)F)c4)cnc3c2)n1 [Example 208] | – | 21% | – |
| NC(=O)c1ccnc(-c2ccn3c(-c4cccc(NC(=O)NCC(F)(F)F)c4)cnc3c2)c1 [Example 209] | – | 0% | – |
| O=C(NCC(F)(F)F)Nc1cccc(-c2cnc3cc(-c4nccc(-n5ccnc5)n4)ccn23)c1 [Example 213] | – | 22% | – |
| CN(C)c1cc(-c2ccn3c(-c4cccc(NC(=O)NCC(F)(F)F)c4)cnc3c2)nc(C(F)(F)F)n1 [Example 214] | 2.6 µM | – | – |
| CN(C)S(=O)(=O)n1ccnc1-c1ccnc(-c2ccn3c(-c4cccc(NC(=O)NCC(F)(F)F)c4)cnc3c2)n1 [Example 216] | – | 28% | – |
| O=C(NCC(F)(F)F)Nc1cccc(-c2cnc3cc(-c4cnn(C5CN(CCO)C5)c4)ccn23)c1 [Example 217] | – | – | inhibition at 3 µM [2]: 37% |
| CNc1cc(-c2ccn3c(-c4cccc(NC(=O)NCC(F)(F)F)c4)cnc3c2)nc(SC)n1 [Example 218] | – | 30% | – |
| Cc1nc2cc(-c3ccn4c(-c5cccc(NC(=O)NCC(F)(F)F)c5)cnc4c3)ccc2s1 [Example 219] | 3.5 µM | – | – |
| CNC(=O)c1ccnc(-c2ccn3c(-c4cccc(NC(=O)NCC(F)(F)F)c4)cnc3c2)n1 [Example 220] | 1.5 µM | – | – |
| O=C(NCC(F)(F)F)Nc1cccc(-c2cnc3cc(-c4nccc(C(=O)N5CCOCC5)n4)ccn23)c1 [Example 221] | – | – | inhibition at 3 µM [2]: 21% |
| CNC(=O)c1cc(C)nc(-c2ccn3c(-c4cccc(NC(=O)NCC(F)(F)F)c4)cnc3c2)n1 [Example 222] | 2.3 µM | – | – |
| Cc1cn2nc(-c3ccn4c(-c5cccc(NC(=O)NCC(F)(F)F)c5)cnc4c3)sc2n1 [Example 225] | – | 0% | – |
| Cc1cc(-c2ccn3c(-c4cccc(NC(=O)NCC(F)(F)F)c4)cnc3c2)nc(C(C)C)n1 [Example 226] | – | 40% | – |
| O=C(NCC(F)(F)F)Nc1cccc(-c2cnc3cc(-c4cc(C(F)(F)F)ncn4)ccn23)c1 [Example 227] | 3.6 µM | – | – |
| CCNC(=O)Nc1cccc(-c2cnc3cc(-c4ccc(F)c(C)n4)ccn23)c1 [Example 228] | 5.1 µM | – | – |
| Nc1nc(-c2ccn3c(-c4cccc(NC(=O)NCC(F)(F)F)c4)cnc3c2)ccc1C(F)(F)F [Example 231] | – | 23% | – |
| Nc1cc(-c2ccn3c(-c4cccc(NC(=O)NCC(F)(F)F)c4)cnc3c2)ncc1C(F)(F)F [Example 234] | 6.4 µM | – | – |
| CCNC(=O)Nc1cccc(-c2cnc3cc(-c4ncc(C(F)(F)F)c(N)n4)ccn23)c1 [Example 235] | 1.2 µM | – | – |
| Cc1cc(-c2ccn3c(-c4cccc(NC(=O)NCC(F)(F)F)c4)cnc3c2)nc(C(F)(F)F)n1 [Example 237] | 0.12 µM | – | – |
| CCOc1cnc(-c2ccn3c(-c4cccc(NC(=O)NCC(F)(F)F)c4)cnc3c2)nc1 [Example 240] | – | 17% | – |
